Source: the CheMixHub viscosity set
“And” between values parts separate entries of the source, which are not always exact repeats. Equal values may be shown once. ± gives the uncertainty stated by the source.

Assay: xn = mol fraction of the nth substance listed

What does the source list for O=CC(Cl)(Cl)Cl + OCc1ccccc1?
viscosity (298.15 K, 101 kPa, x1 = 0.0986): 7.956 ± 0.33 mPa·s; viscosity (298.15 K, 101 kPa, x1 = 0.1891): 12.34 ± 0.51 mPa·s; viscosity (298.15 K, 101 kPa, x1 = 0.2795): 18.57 ± 0.77 mPa·s; viscosity (298.15 K, 101 kPa, x1 = 0.3562): 21.83 ± 0.91 mPa·s; viscosity (298.15 K, 101 kPa, x1 = 0.4064): 40.42 ± 1.7 mPa·s; viscosity (298.15 K, 101 kPa, x1 = 0.4364): 50.35 ± 2.1 mPa·s; viscosity (298.15 K, 101 kPa, x1 = 0.4751): 55.16 ± 2.3 mPa·s; viscosity (298.15 K, 101 kPa, x1 = 0.493): 54.24 ± 2.2 mPa·s; viscosity (298.15 K, 101 kPa, x1 = 0.4998): 51.18 ± 2.1 mPa·s; viscosity (298.15 K, 101 kPa, x1 = 0.5395): 39.89 ± 1.7 mPa·s; viscosity (298.15 K, 101 kPa, x1 = 0.5925): 24.53 ± 1 mPa·s; viscosity (298.15 K, 101 kPa, x1 = 0.6679): 9.262 ± 0.39 mPa·s; viscosity (298.15 K, 101 kPa, x1 = 0.7564): 2.888 ± 0.12 mPa·s; viscosity (298.15 K, 101 kPa, x1 = 0.8827): 2.072 ± 0.086 mPa·s; viscosity (323.15 K, 101 kPa, x1 = 0.0986): 3.521 ± 0.15 mPa·s; viscosity (323.15 K, 101 kPa, x1 = 0.1891): 4.774 ± 0.2 mPa·s; viscosity (323.15 K, 101 kPa, x1 = 0.2795): 6.41 ± 0.27 mPa·s; viscosity (323.15 K, 101 kPa, x1 = 0.3562): 6.783 ± 0.28 mPa·s; viscosity (323.15 K, 101 kPa, x1 = 0.4064): 9.558 ± 0.4 mPa·s; viscosity (323.15 K, 101 kPa, x1 = 0.4364): 10.85 ± 0.46 mPa·s; viscosity (323.15 K, 101 kPa, x1 = 0.4751): 10.57 ± 0.45 mPa·s; viscosity (323.15 K, 101 kPa, x1 = 0.493): 10.21 ± 0.45 mPa·s; viscosity (323.15 K, 101 kPa, x1 = 0.4998): 10.01 ± 0.94 mPa·s; viscosity (323.15 K, 101 kPa, x1 = 0.5395): 8.491 ± 0.36 mPa·s; viscosity (323.15 K, 101 kPa, x1 = 0.5925): 6.78 ± 0.28 mPa·s; viscosity (323.15 K, 101 kPa, x1 = 0.6679): 3.796 ± 0.16 mPa·s; viscosity (323.15 K, 101 kPa, x1 = 0.7564): 1.639 ± 0.068 mPa·s; viscosity (323.15 K, 101 kPa, x1 = 0.8827): 1.307 ± 0.054 mPa·s

Which viscosity (323.15 K, 101 kPa, x2 = 0.1128) does the source give for O=C(O)CCl + Oc1ccccc1 here?
Its viscosity is 3.125 ± 0.079 mPa·s.

And the viscosity (323.15 K, 101 kPa, x2 = 0.1918)?
Its viscosity is 3.113 ± 0.079 mPa·s.

And the viscosity (323.15 K, 101 kPa, x2 = 0.26)?
Its viscosity is 3.103 ± 0.079 mPa·s.

What about the viscosity (323.15 K, 101 kPa, x2 = 0.3059) of the same compound?
Its viscosity is 3.112 ± 0.079 mPa·s.

And the viscosity (323.15 K, 101 kPa, x2 = 0.405)?
Its viscosity is 3.121 ± 0.079 mPa·s.

What about the viscosity (323.15 K, 101 kPa, x2 = 0.5113) of the same compound?
Its viscosity is 3.142 ± 0.08 mPa·s.

And the viscosity (323.15 K, 101 kPa, x2 = 0.606)?
The viscosity was 3.203 ± 0.081 mPa·s.

And the viscosity (323.15 K, 101 kPa, x2 = 0.6735)?
The viscosity was 3.242 ± 0.082 mPa·s.

And the viscosity (323.15 K, 101 kPa, x2 = 0.7037)?
Its viscosity is 3.277 ± 0.083 mPa·s.

What about the viscosity (323.15 K, 101 kPa, x2 = 0.7567) of the same compound?
The viscosity was 3.308 ± 0.084 mPa·s.

And the viscosity (323.15 K, 101 kPa, x2 = 0.8216)?
The viscosity was 3.338 ± 0.085 mPa·s.

What about the viscosity (323.15 K, 101 kPa, x2 = 0.903) of the same compound?
Its viscosity is 3.353 ± 0.085 mPa·s.

Which viscosity (318.1 K, 101 kPa, x1 = 0.111) does the source give for CC(C)C(=O)O + [2H]O[2H] here?
Its viscosity is 2.122 ± 0.17 mPa·s and 2.132 ± 0.2 mPa·s and 2.14 ± 0.2 mPa·s.

What about the viscosity (318.11 K, 101 kPa, x1 = 0.111) of the same compound?
Its viscosity is 2.112 ± 0.16 mPa·s.

And the viscosity (318.12 K, 101 kPa, x1 = 0.111)?
The viscosity was 2.092 ± 0.15 mPa·s.

And the viscosity (318.13 K, 101 kPa, x1 = 0.111)?
Its viscosity is 2.074 ± 0.14 mPa·s.

And the viscosity (318.14 K, 101 kPa, x1 = 0.111)?
The viscosity was 2.06 ± 0.14 mPa·s.

And the viscosity (318.15 K, 101 kPa, x1 = 0.111)?
The viscosity was 2.046 ± 0.13 mPa·s.

And the viscosity (318.17 K, 101 kPa, x1 = 0.111)?
Its viscosity is 2.018 ± 0.11 mPa·s.

And the viscosity (318.19 K, 101 kPa, x1 = 0.111)?
Its viscosity is 2.011 ± 0.11 mPa·s.

What about the viscosity (318.2 K, 101 kPa, x1 = 0.111) of the same compound?
The viscosity was 1.997 ± 0.086 mPa·s.

And the viscosity (318.23 K, 101 kPa, x1 = 0.111)?
Its viscosity is 1.973 ± 0.078 mPa·s.

What about the viscosity (318.26 K, 101 kPa, x1 = 0.111) of the same compound?
The viscosity was 1.956 ± 0.073 mPa·s.

And the viscosity (318.29 K, 101 kPa, x1 = 0.111)?
The viscosity was 1.944 ± 0.065 mPa·s.

And the viscosity (318.3 K, 101 kPa, x1 = 0.111)?
Its viscosity is 1.934 ± 0.12 mPa·s.

And the viscosity (318.36 K, 101 kPa, x1 = 0.111)?
The viscosity was 1.912 ± 0.093 mPa·s.

What about the viscosity (318.39 K, 101 kPa, x1 = 0.111) of the same compound?
The viscosity was 1.902 ± 0.072 mPa·s.

And the viscosity (318.48 K, 101 kPa, x1 = 0.111)?
The viscosity was 1.876 ± 0.058 mPa·s.

And the viscosity (318.56 K, 101 kPa, x1 = 0.111)?
Its viscosity is 1.857 ± 0.04 mPa·s.

And the viscosity (318.66 K, 101 kPa, x1 = 0.111)?
Its viscosity is 1.838 ± 0.04 mPa·s.

What about the viscosity (318.69 K, 101 kPa, x1 = 0.111) of the same compound?
The viscosity was 1.833 ± 0.037 mPa·s.

And the viscosity (318.98 K, 101 kPa, x1 = 0.111)?
The viscosity was 1.788 ± 0.029 mPa·s.

And the viscosity (319.21 K, 101 kPa, x1 = 0.111)?
Its viscosity is 1.763 ± 0.023 mPa·s.

What about the viscosity (319.69 K, 101 kPa, x1 = 0.111) of the same compound?
The viscosity was 1.717 ± 0.02 mPa·s.

And the viscosity (320.21 K, 101 kPa, x1 = 0.111)?
Its viscosity is 1.677 ± 0.017 mPa·s.

What about the viscosity (321.2 K, 101 kPa, x1 = 0.111) of the same compound?
The viscosity was 1.615 ± 0.016 mPa·s.

And the viscosity (322.2 K, 101 kPa, x1 = 0.111)?
The viscosity was 1.562 ± 0.014 mPa·s.

For CCCCCCCCCCCCCCCC + c1ccccc1, which viscosity (298 K, 101 kPa, x2 = 0.5) is on record?
The viscosity was 1.65 ± 0.043 mPa·s and 1.651 ± 0.043 mPa·s.

And the viscosity (298.15 K, 101.33 kPa, x1 = 0.0535)?
Its viscosity is 0.6803 ± 0.006 mPa·s.

And the viscosity (298.15 K, 101.33 kPa, x1 = 0.09944)?
The viscosity was 0.7563 ± 0.0066 mPa·s.

And the viscosity (298.15 K, 101.33 kPa, x1 = 0.2199)?
The viscosity was 0.9761 ± 0.0082 mPa·s.

And the viscosity (298.15 K, 101.33 kPa, x1 = 0.3234)?
Its viscosity is 1.161 ± 0.0095 mPa·s.

What about the viscosity (298.15 K, 101.33 kPa, x1 = 0.4341) of the same compound?
The viscosity was 1.429 ± 0.011 mPa·s.

And the viscosity (298.15 K, 101.33 kPa, x1 = 0.5194)?
Its viscosity is 1.649 ± 0.013 mPa·s.

And the viscosity (298.15 K, 101.33 kPa, x1 = 0.641)?
Its viscosity is 1.972 ± 0.015 mPa·s.

What about the viscosity (298.15 K, 101.33 kPa, x1 = 0.6928) of the same compound?
The viscosity was 2.107 ± 0.016 mPa·s.

And the viscosity (298.15 K, 101.33 kPa, x1 = 0.8361)?
The viscosity was 2.492 ± 0.019 mPa·s.

And the viscosity (298.15 K, 101.33 kPa, x1 = 0.9416)?
Its viscosity is 2.887 ± 0.022 mPa·s.

What about the viscosity (318 K, 101 kPa, x2 = 0.5) of the same compound?
The viscosity was 1.192 ± 0.032 mPa·s and 1.193 ± 0.032 mPa·s.
